Calls of active or inactive are those of the source. The rule behind the calls is not given here.
Tests used:
[1] = molecular target: T1, Solute carrier family 22 member 12 (Homo sapiens, UniProt Q96S37); test: Inhibition of human URAT1 transfected in HEK293 cells by measuring 14C-uric acid uptake preincubated for 30 mins followed by 14--uric acid addition and measured after 15 mins by liquid scintillation counter analysis; type: cell-based
T1 sequence (Q96S37 whole entry): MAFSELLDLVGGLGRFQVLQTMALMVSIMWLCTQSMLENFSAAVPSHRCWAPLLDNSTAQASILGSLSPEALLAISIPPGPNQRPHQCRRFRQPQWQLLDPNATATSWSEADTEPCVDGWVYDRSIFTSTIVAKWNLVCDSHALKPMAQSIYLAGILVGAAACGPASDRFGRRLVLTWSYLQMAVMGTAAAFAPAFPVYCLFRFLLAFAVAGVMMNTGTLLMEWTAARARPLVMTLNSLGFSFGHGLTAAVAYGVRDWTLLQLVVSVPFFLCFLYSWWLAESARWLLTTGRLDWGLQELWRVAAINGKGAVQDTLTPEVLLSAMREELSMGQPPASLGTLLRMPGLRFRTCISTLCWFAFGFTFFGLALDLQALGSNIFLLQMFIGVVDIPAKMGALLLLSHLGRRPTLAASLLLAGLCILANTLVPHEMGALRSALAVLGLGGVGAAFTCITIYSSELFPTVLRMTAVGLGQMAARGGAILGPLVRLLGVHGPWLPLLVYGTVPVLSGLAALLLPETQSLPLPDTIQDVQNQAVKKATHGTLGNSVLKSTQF

[2] = molecular target: T1, Solute carrier family 22 member 12; test: Inhibition of human URAT1 transfected in HEK293 cells by measuring 14C-uric acid uptake at 5 uM preincubated for 30 mins followed by 14--uric acid addition and measured after 15 mins by liquid scintillation counter analysis relative to control; type: cell-based; details: 0.25 h, time 45 min
[3] = molecular target: T2, Solute carrier family 2, facilitated glucose transporter member 9 (Homo sapiens) (UniProt Q9NRM0); test: Inhibition of GLUT9 (unknown origin) overexpressed in uric acid-induced HEK293 cells at 25 uM by patch clamp analysis relative to control; type: cell-based
T2 sequence (whole entry): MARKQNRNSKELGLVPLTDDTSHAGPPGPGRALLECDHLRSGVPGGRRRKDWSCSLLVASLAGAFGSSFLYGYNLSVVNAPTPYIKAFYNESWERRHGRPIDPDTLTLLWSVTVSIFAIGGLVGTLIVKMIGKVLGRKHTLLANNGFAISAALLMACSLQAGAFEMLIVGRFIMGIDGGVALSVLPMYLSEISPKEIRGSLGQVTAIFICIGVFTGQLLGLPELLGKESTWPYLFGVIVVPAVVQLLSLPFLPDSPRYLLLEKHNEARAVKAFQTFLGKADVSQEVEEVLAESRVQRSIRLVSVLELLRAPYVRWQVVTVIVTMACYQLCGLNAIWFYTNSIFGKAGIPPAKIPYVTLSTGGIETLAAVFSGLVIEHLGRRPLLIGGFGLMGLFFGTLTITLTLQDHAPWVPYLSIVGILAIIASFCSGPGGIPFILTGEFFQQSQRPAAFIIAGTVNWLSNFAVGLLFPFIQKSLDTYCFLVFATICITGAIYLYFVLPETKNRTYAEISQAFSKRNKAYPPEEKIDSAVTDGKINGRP

Mus musculus [4] = test: (§1) Anti-hyperuricemic activity against potassium oxonate-induced male Kunming mouse model assessed as reduction in serum uric acid level at 10 mg/kg, po via gavage administered 1 hr post-potassium oxonate challenge and measured after 7 days on day 7 potassium oxonate injected after 12 hrs fasting and measured followed by 1.5 hrs of compound administration; type: functional; details: time 7 day
Mus musculus [5] = test: as §1, with “increase” for “reduction”, “urine” for “serum”, “administration (reference value: 481.6 microM)” for “administration”; type: functional; details: time 7 day
HK-2 [6] = test: Cytotoxicity against human HK-2 cells assessed as cell viability at <100 uM incubated for 24 hrs by MTT assay; type: toxicity, cell-based; details: hk-2, 24 h
HK-2 [7] = test: Cytotoxicity against human HK-2 cells assessed as cell viability at 100 uM incubated for 48 hrs by MTT assay; type: toxicity, cell-based; details: hk-2, 48 h
[8] = (§2) Renal toxicity in potassium oxonate-induced male Kunming mouse model assessed as reduction in CR level in serum at 10 mg/kg,po via gavage administered 1 hr post-potassium oxonate challenge and measured after 7 days on day 7 potassium oxonate injected after 12 hrs fasting and measured followed by 1.5 hrs of compound administration by biochemical analyzer; type: organism-based; details: in vivo, 168 h, time 7 day
[9] = as §2, with “BUN” for “CR”; type: organism-based; details: in vivo, 168 h, time 7 day
[10] = as §2, with “effect on kidney damage” for “reduction in CR level in serum”, “administration” for “administration by biochemical analyzer”; type: organism-based; details: in vivo, 168 h, time 7 day
Mus musculus [11] = test: as §1, with “alleviation of renal tubule dilatation” for “reduction in serum uric acid level”, “administration by H and E staining based analysis” for “administration”; type: functional, organism-based; details: time 7.0 day
Mus musculus [12] = test: as §1, with “alleviation of casts formation” for “reduction”, “kidney” for “serum uric acid level”, “administration by H and E staining based analysis” for “administration”; type: functional, organism-based; details: time 7.0 day
Mus musculus [13] = test: as §1, with “alleviation of glomerular ischemia” for “reduction”, “kidney” for “serum uric acid level”, “administration by H and E staining based analysis” for “administration”; type: functional, organism-based; details: time 7.0 day
Mus musculus [14] = test: as §1, with “alleviation of shrinkage” for “reduction”, “kidney” for “serum uric acid level”, “administration by H and E staining based analysis” for “administration”; type: functional, organism-based; details: time 7.0 day
[15] = Tmax in male Sprague-Dawley rat at 10 mg/kg, po measured after 24 hrs by LC-MS/MS analysis; type: ADME, organism-based; details: in vivo
[16] = Cmax in male Sprague-Dawley rat at 10 mg/kg, po measured after 24 hrs by LC-MS/MS analysis; type: ADME, organism-based; details: in vivo
[17] = Half life in male Sprague-Dawley rat at 10 mg/kg, po measured after 24 hrs by LC-MS/MS analysis; type: ADME, organism-based; details: in vivo
[18] = AUC (0 to infinity) in male Sprague-Dawley rat at 10 mg/kg, po measured after 24 hrs by LC-MS/MS analysis; type: ADME, organism-based; details: in vivo
[19] = MRT (0 to infinity) in male Sprague-Dawley rat at 10 mg/kg, po measured after 24 hrs by LC-MS/MS analysis; type: ADME, organism-based; details: in vivo
[20] = molecular target: T3, Solute carrier family 2, facilitated glucose transporter member 9 (Homo sapiens, UniProt Q9NRM0); test: Inhibition of GLUT9 (unknown origin) overexpressed in uric acid-induced HEK293 cells by patch clamp analysis; type: cell-based
T3 sequence (Q9NRM0 whole entry): T2 sequence (whole entry)

[21] = molecular target: T1, Solute carrier family 22 member 12; test: Inhibition of URAT1 (unknown origin)

Cc1ccc2c(c1C/C=C/S(=O)(=O)c1ccccc1)OC(c1ccsc1)CC2=O (stereo unspecified)
IC50 [1]: 4430 nM

O=C(O)/C=C/Cc1cccc2c1OC(c1ccc(O)cc1)CC2=O (stereo unspecified)
IC50 [1]: 4240 nM

C/C(=C\Cc1cccc2c1OC(c1ccsc1)CC2=O)C(=O)O (stereo unspecified)
IC50 [1]: 2180 nM

CC(C)=CCc1c(O)ccc2c1OC(c1ccc(Br)cc1)CC2=O (stereo unspecified)
inhibition at 5 µM [2]: 32.2%

O=C(O)/C=C/Cc1cccc2c1OC(c1ccsc1)CC2=O (stereo unspecified)
IC50 [1]: 3590 nM

C/C(=C\Cc1cccc2c1OC(c1cccs1)CC2=O)C(=O)O (stereo unspecified)
IC50 [1]: 860 nM | inhibition [3]: 22.7% | Activity (Mus musculus [4]): 317.1 µM | Activity (Mus musculus [5]): 648.21 µM | Activity (HK-2 [6]): Toxic | Activity (HK-2 [7]): Non-Toxic | Activity [8]: Non-Toxic | Activity [9]: Non-Toxic | Activity [10]: Non-Toxic | Activity (Mus musculus [11]): Active | Activity (Mus musculus [12]): Active | Activity (Mus musculus [13]): Active | Activity (Mus musculus [14]): Active | Tmax [15]: 0.83 h | Cmax [16]: 2090 ng/mL | half-life [17]: 5.14 h | AUC(0-inf) [18]: 14700 ng·h/mL | MRT inf [19]: 11.4 h

CC(C)=CCc1c(O)ccc2c1OC(c1ccc(F)cc1)CC2=O (stereo unspecified)
inhibition at 5 µM [2]: 4.4%

CC(C)=CCc1c(O)ccc2c1OC(c1cc3ccccc3s1)CC2=O (stereo unspecified)
inhibition at 5 µM [2]: 13.4%

C/C(=C\Cc1cccc2c1OC(c1csc3ccccc13)CC2=O)C(=O)O (stereo unspecified)
IC50 [1]: 950 nM

C/C(=C\Cc1c(O)ccc2c1OC(c1ccsc1)CC2=O)C(=O)O (stereo unspecified)
IC50 [1]: 650 nM

CC(C)=CCc1c(O)ccc2c1OC(c1ccsc1)CC2=O (stereo unspecified)
inhibition at 5 µM [2]: 72.3%

C/C(=C\Cc1c(O)ccc2c1OC(c1ccc(Cl)cc1)CC2=O)C(=O)O (stereo unspecified)
IC50 [1]: 2860 nM

C/C(=C\Cc1c(O)ccc2c1OC(c1cccs1)CC2=O)C(=O)O (stereo unspecified)
IC50 [1]: 360 nM | inhibition [3]: 25.5% | Activity (Mus musculus [4]): 366.12 µM | Activity (Mus musculus [5]): 630.52 µM | Activity (HK-2 [6]): Toxic | Activity (HK-2 [7]): Non-Toxic | Activity [8]: Non-Toxic | Activity [9]: Non-Toxic | Activity [10]: Non-Toxic | Activity (Mus musculus [11]): Active | Activity (Mus musculus [12]): Active | Activity (Mus musculus [13]): Active | Activity (Mus musculus [14]): Active | Tmax [15]: 1.63 h | Cmax [16]: 1410 ng/mL | half-life [17]: 4.52 h | AUC(0-inf) [18]: 5560 ng·h/mL | MRT inf [19]: 8.48 h

CC(C)=CCc1c(O)ccc2c1OC(c1ccc(O)cc1)CC2=O (stereo unspecified)
inhibition at 5 µM [2]: 93.3% | IC50 [1]: 240 nM | inhibition [3]: 95.5% | IC50 [20]: 1840 nM | Tmax [15]: 1.12 h | Cmax [16]: 1110 ng/mL | half-life [17]: 6.01 h | AUC(0-inf) [18]: 7460 ng·h/mL | MRT inf [19]: 9.16 h | IC50 [21]: 220 nM

C/C(=C\Cc1c(O)ccc2c1OC(c1ccc(O)cc1)CC2=O)C(=O)O (stereo unspecified)
IC50 [1]: 2110 nM

CC(C)=CCc1c(O)ccc2c1OC(c1cccc(F)c1)CC2=O (stereo unspecified)
inhibition at 5 µM [2]: 22.7%

C/C(=C\Cc1cccc2c1OC(c1cc(Br)cs1)CC2=O)C(=O)O (stereo unspecified)
IC50 [1]: 980 nM

O=C(O)CCCc1c(O)ccc2c1OC(c1cccs1)CC2=O (stereo unspecified)
IC50 [1]: 2410 nM

Source: ChEMBL document CHEMBL5614401 (Eur J Med Chem, 2024)
